Results taken from patent publication US20040121947A1, “Compounds which inhibit beta-secretase activity and methods of use thereof” (Oklahoma Medical Research Foundation, priority 2000, published 2004).
Several values for one entry are separate records, joined by “and”; a condition that tells them apart may be missing. Identical values can stand only once. Like-named read-outs stand apart in the source and are kept apart here.

Tests used:
[1] = biological target: T1, memapsin 2 (Homo sapiens, UniProt P56817); assay: Inhibition of memapsin 2 proteolytic activity, fluorogenic substrate FS-2; format: biochemical; settings: for % Inhibition Mep2: enzyme concentration equals the compound concentration; for % Inh (M1/M2): ratio of % inhibition memapsin 1 / memapsin 2, 1 or less = greater inhibition of memapsin 2; for Selectivity: Ki for memapsin 2 lower than Ki for memapsin 1: memapsin 2 relative to memapsin 1; for Vi/Vo: ratio of initial cleavage velocities of FS-2 with/without compound, enzyme and inhibitor concentrations equal (e.g., about 80 nM, 100 nM)
T1 construct: pET-11 vector-derived residues 1-15 of promemapsin 2-T1 (N, cleaved yes); made in house; host or cells: E. coli
Procedure, shortened: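 Inhibitors tested at about 10 nM to 10 μM in pH 4.0 0.1 M sodium acetate containing 10% (v/v) DMSO, after 20 min preincubation at 37 °C with 80 nM self-activated memapsin 2. Substrate-independent Ki derived from apparent Ki via Km and substrate level.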

[2] = biological target: T2, memapsin 1 (Homo sapiens, UniProt Q9Y5Z0); assay: Inhibition of memapsin 1 proteolytic activity, fluorogenic substrate FS-2; format: biochemical; settings: for % Inhibition Mep1: enzyme concentration equals the compound concentration
T2 construct: pET-11 vector-derived residues 1-14 of promemapsin 1-T1 (N, cleaved yes); made in house; host or cells: E. coli
T2 sequence (Q9Y5Z0 63-466 limits assumed): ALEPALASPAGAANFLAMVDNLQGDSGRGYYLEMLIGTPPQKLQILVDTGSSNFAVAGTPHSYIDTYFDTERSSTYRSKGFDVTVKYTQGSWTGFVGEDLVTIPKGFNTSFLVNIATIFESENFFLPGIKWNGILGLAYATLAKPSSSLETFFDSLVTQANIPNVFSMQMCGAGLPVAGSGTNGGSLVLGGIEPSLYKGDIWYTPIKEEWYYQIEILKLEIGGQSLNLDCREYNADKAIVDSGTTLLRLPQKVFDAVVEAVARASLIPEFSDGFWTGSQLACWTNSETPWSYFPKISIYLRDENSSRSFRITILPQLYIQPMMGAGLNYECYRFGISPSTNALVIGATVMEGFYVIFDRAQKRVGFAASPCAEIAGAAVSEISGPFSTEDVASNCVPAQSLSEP
Description: Vi/Vo depicts the ratio of initial cleavage velocities of the substrate FS-2 (Ermolieff, et al., Biochemistry […]:12450-12456 (2000)) by memapsin 1 or memapsin 2 in the absence (Vo) or presence (Vi) of a compound of the invention. […] The Vi/Vo values depicted in Table 1 were determined at conditions under which the enzyme and inhibitor concentrations were equal (e.g., about 80 nM, 100 nM).
The relationship of Ki (independent of substrate concentration) to Kiapp is a function of substrate concentration in the assay and the Km for cleavage of the substrate by either memapsin 1 or memapsin 2 by the relationship:
An aliquot of the inhibitor of known concentration in DMSO was diluted into 1.8 ml 0.1 M NaOAc, pH 4.0. DMSO and added to a final concentration of 10% (v/v), and memapsin 2 (final concentration of 80 nM), followed by a 20 minute equilibration at 37° C. Compounds were evaluated for the ability to inhibit memapsin 1 and memapsin 2 at concentrations between about 10 nM and about 10 μm of inhibitor.
The relationship of Ki (independent of substrate concentration) to Kiapp is a function of substrate concentration in the assay and the Km for cleavage of the substrate by either memapsin 1 or memapsin 2 by the relationship: […]

[3] = test system: plasma Aβ40; assay: Inhibition of Aβ production in transgenic mouse model of Alzheimer's disease (plasma Aβ40 ELISA); format: in vivo, APP/F mice; settings: for Sustainment of inhibition of plasma Aβ40: over a 24-h period; for Blood brain barrier penetration (from reduction of plasma Aβ): transgenic mice; for Decrease in plasma Aβ40: within 30 minutes following i.p. injection of about 163 nanomoles
Description: Compounds MMI-138, MMI-165, and MMI-185 were synthesized as described above. Compounds were dissolved in 1 ml of dimethyl sulfoxide (DMSO) to a final concentration of about 1 mg/ml for MMI-165 and MMI-185, and about 10 mg/ml for MMI-138. […] Inhibitors were diluted into PBS or H2O immediately prior to injection, as described below. Inhibition constants were determined by methods described by Ermolieff, et al. (Biochem. 39:12450-12456 (2000), the teachings of which are incorporated hereby in their entirety).
The tg2576 strain of mice was obtained from Taconic (Germantown, N.Y.). The APP/F strain of mice were obtained by mating the tg2576 mice with the FVB/N strain. To determine presence of the Swedish APP gene in APP/F mice, the DNA from mice was isolated according to the Qiagen Dneasy™ Tissue Kit. PCR (Qiagen kit and protocol) was used to amplify the fragment of DNA corresponding to the human Swedish APP gene. The following primers were used: […]
At the age of three months, animals of the Alzheimer's disease mouse model APP/F were injected intraperitoneally (i.p.) with about 163 nanomoles of either compounds MMI-138 (molecular weight 674 g/mole; 110 μg per animal, n=2), MMI-165 (molecular weight 626 g/mole; 102 μg per animal, n=2), or MMI-185 (molecular weight 686; 112 μg per animal, n=2).
Heparinized capillary tubes collected blood samples from anesthetized animals from either the retro-orbital sinus or from the saphenous vein at specified intervals following injection. The blood samples were transferred to sterile 1.5 mL microcentrifuge tubes, centrifuged at 5,100 RPM for 10 minutes to recover the plasma (supernatant), and stored at −70° C. until analysis for the Aβ40 by Enzyme Linked-Immuno-Sorbent Assay (ELISA).
A sandwich ELISA (BioSource International, Camarillo, Calif.) was used to determine the levels of Aβ40 in plasma samples. The ELISA utilizes a primary antibody specific for human Aβ for the immobilization of the amino-terminus and a detection antibody specific for the carboxy-terminal amino acids of Aβ40. A conjugated secondary antibody was used to detect the ternary complex, using a stabilized chromogen substrate, quantifiable following addition of 1 M HCl, with the optical densities measured at 450 nm. The procedures were followed according to the BioSource protocol. Optical densities were converted to pg/ml quantities of Aβ40 using a linear regression of the optical densities of standards obtained from the commercial kit, to their known concentrations.

[4] = memapsin 2, apparent Ki in presence of substrate FS-2, read-out: Ki app
[5] = memapsin 2, independent of substrate, converted from Ki apparent, read-out: Ki
[6] = Table 9, read-out: Ki apparent Mep2
[7] = Table 9, read-out: Ki apparent Mep1

T1 sequence (P56817 41-454 limits assumed): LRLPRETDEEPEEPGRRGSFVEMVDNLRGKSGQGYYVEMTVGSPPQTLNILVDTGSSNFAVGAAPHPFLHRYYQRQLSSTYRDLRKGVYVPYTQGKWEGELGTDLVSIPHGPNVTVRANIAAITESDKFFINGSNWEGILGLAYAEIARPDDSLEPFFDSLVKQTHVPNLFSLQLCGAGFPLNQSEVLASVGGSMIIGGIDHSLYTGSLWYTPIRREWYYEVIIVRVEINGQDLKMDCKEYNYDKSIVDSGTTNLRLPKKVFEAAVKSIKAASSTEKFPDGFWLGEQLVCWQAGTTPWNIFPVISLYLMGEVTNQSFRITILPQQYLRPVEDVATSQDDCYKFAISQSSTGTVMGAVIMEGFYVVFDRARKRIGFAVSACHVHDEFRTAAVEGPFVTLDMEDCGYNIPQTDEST

Compound: CSCC[C@H](NC(=O)[C@H](CC(C)C)NC(=O)OC(C)(C)C)C(=O)N[C@@H](CC(C)C)[C@@H](O)C[C@@H](C)C(=O)N[C@H](C(=O)NCC(C)C)C(C)C [MMI-134]
- % Inhibition Mep2 [1]: 81%
- Ki [1, 4]: 3.48 nM
- Ki [1, 5]: 2.18 nM
- % Inh (M1/M2) [1]: 1.21
- % Inhibition Mep1 [2]: 98%

Compound: CSCC[C@H](NC(=O)OCn1nc(C)cc1C)C(=O)N[C@@H](CC(C)C)[C@@H](O)C[C@@H](C)C(=O)N[C@H](C(=O)NCc1ccccc1)C(C)C [MMI-138]
- Sustainment of inhibition of plasma Aβ40 [3]: remained nearly constant
- Blood brain barrier penetration (from reduction of plasma Aβ) [3]: penetrated the blood brain barrier
- Decrease in plasma Aβ40 [3]: 57%
- Ki [1, 6]: 14.2 nM
- % Inhibition Mep2 [1]: 72%
- Ki [1, 4]: 14.2 nM
- Ki ([1]; memapsin 2, read-out: Ki): 14.2 nM and 8.8 nM
- Selectivity: Ki for memapsin 2 lower than Ki for memapsin 1 [1]: about 60 fold
- Selectivity: Ki for memapsin 2 lower than Ki for memapsin 1 ([1]; listed as 138): about 60 fold
- % Inh (M1/M2) [1]: 0.10
- % Inhibition Mep1 [2]: 7%
- Ki ([2]; read-out: Ki for memapsin 1): 811 nM

Compound: Cc1cc(C)n(COC(=O)N[C@@H](CCS(C)(=O)=O)C(=O)N[C@@H](CC(C)C)[C@@H](O)C[C@@H](C)C(=O)N[C@H](C(=O)NCc2ccccc2)C(C)C)n1 [MMI-139]
- % Inhibition Mep2 [1]: 50%
- % Inh (M1/M2) [1]: 0
- Vi/Vo [1]: 0.5
- % Inhibition Mep1 [2]: 0%

Compound: CSCC[C@H](NC(=O)OCn1nc(C)cc1C)C(=O)N[C@@H](CC(C)C)[C@@H](O)C[C@@H](C)C(=O)N[C@H](C(=O)NCC(C)C)C(C)C [MMI-156]
- % Inhibition Mep2 [1]: 68%
- Ki [1, 4]: 3.03 nM
- Ki [1, 5]: 1.89 nM
- % Inh (M1/M2) [1]: 0.47
- Vi/Vo [1]: 0.32
- % Inhibition Mep1 [2]: 32%

Compound: CCCCNC(=O)[C@@H](NC(=O)[C@H](C)C[C@H](O)[C@H](CC(C)C)NC(=O)[C@H](CCSC)NC(=O)OCn1nc(C)cc1C)C(C)C [MMI-167]
- % Inhibition Mep2 [1]: 44%
- Ki [1, 4]: 36.6 nM
- Ki [1, 5]: 22.8 nM
- % Inh (M1/M2) [1]: 0.18
- Vi/Vo [1]: 0.56
- % Inhibition Mep1 [2]: 8%

Compound: CSCC[C@H](NC(=O)OCn1nc(C)cc1C)C(=O)N[C@@H](CC(C)C)[C@@H](O)C[C@@H](C)C(=O)N[C@@H](CC(C)C)C(=O)NC(CF)CF [MMI-171]
- % Inhibition Mep2 [1]: 45%
- Ki [1, 4]: 63.9 nM
- Ki [1, 5]: 40 nM
- % Inh (M1/M2) [1]: 0.18
- Vi/Vo [1]: 0.55
- % Inhibition Mep1 [2]: 8%

Compound: CSCC[C@H](NC(=O)OCCn1nc(C)cc1C)C(=O)N[C@@H](CC(C)C)[C@@H](O)C[C@@H](C)C(=O)N[C@@H](CC(C)C)C(=O)NCC(C)C [MMI-176]
- % Inhibition Mep2 [1]: 47%
- Ki [1, 4]: 111 nM
- Ki [1, 5]: 69.1 nM
- % Inh (M1/M2) [1]: 0
- Vi/Vo [1]: 1
- % Inhibition Mep1 [2]: 0%

Compound: CSCC[C@H](NC(=O)OCCn1nc(C(C)C)cc1C(C)C)C(=O)N[C@@H](CC(C)C)[C@@H](O)C[C@@H](C)C(=O)N[C@H](C(=O)NCC(C)C)C(C)C [MMI-180]
- % Inhibition Mep2 [1]: 26%
- % Inh (M1/M2) [1]: 0
- Vi/Vo [1]: 0.74
- % Inhibition Mep1 [2]: 0%

Compound: CSCC[C@H](NC(=O)OCn1nc(C)cc1C)C(=O)N[C@@H](CC(C)C)[C@@H](O)C[C@]1(C)CCN([C@@H](CC(C)C)C(=O)NCC(C)C)C1=O [MMI-181]
- % Inhibition Mep2 [1]: 47%
- Ki [1, 4]: 393 nM
- Ki [1, 5]: 246 nM
- % Inh (M1/M2) [1]: 0.19
- Vi/Vo [1]: 0.53
- % Inhibition Mep1 [2]: 9%

Compound: CCCCNC(=O)[C@H](C(C)C)N1CC[C@@](C)(C[C@H](O)[C@H](CC(C)C)NC(=O)[C@H](CCSC)NC(=O)OCn2nc(C)cc2C)C1=O [MMI-182]
- Ki ([1]; Ki, [I] < 100, memapsin 2, [I] < 100 (nM)): 72.7 nM
- % Inhibition Mep2 [1]: 34%
- Ki [1, 4]: 447 nM
- Ki [1, 5]: 280 nM
- % Inh (M1/M2) [1]: 0
- Vi/Vo [1]: 0.66
- % Inhibition Mep1 [2]: 0%

Compound: COCC[C@H](NC(=O)[C@H](CC(C)C)NC(=O)OC(C)(C)C)C(=O)N[C@@H](CC(C)C)[C@@H](O)C[C@@H](C)C(=O)N[C@@H](CC(C)C)C(=O)NC(C)C [MMI-185]
- Sustainment of inhibition of plasma Aβ40 [3]: appeared to return to initial level
- Blood brain barrier penetration (from reduction of plasma Aβ) [3]: penetrated the blood brain barrier
- Decrease in plasma Aβ40 [3]: 63%
- Ki [1, 4]: 7.23 nM
- Ki [1, 5]: 4.52 nM
- Ki ([1]; memapsin 2, read-out: Ki): 4.5 nM

Compound: CSCC[C@H](NC(=O)C(C)Cn1nc(C)cc1C)C(=O)N[C@@H](CC(C)C)[C@@H](O)C[C@@H](C)C(=O)N[C@H](C(=O)NCC(C)C)C(C)C (stereo partly shown) [MMI-196]
- Ki [1, 6]: 28.8 nM
- Ki [1, 4]: 28.8 nM
- Ki [1, 5]: 18 nM
- Ki [2, 7]: 351 nM

Compound: CSCC[C@H](NC(=O)C(Cn1nc(C)cc1C)C(C)C)C(=O)N[C@@H](CC(C)C)[C@@H](O)C[C@@H](C)C(=O)N[C@H](C(=O)NCC(C)C)C(C)C (stereo partly shown) [MMI-204]
- Ki [1, 6]: 27.4 nM
- Ki [1, 4]: 27.4 nM
- Ki [1, 5]: 17.1 nM
- Ki [2, 7]: 1030 nM
